Source: patent US20060024691A1, “Novel pathways in the etiology of cancer” (Buck Institute for Age Research, priority 2004, published 2006)
Like-named read-outs stand apart in the source and are kept apart here.

Assays:
NF-κB p65 = assay: Nuclear translocation of NF-κB p65 in MCF-7 cultures; type: cell-based, human; details: 10 μM, 30 min
ERα = details: estrogen-free culture, 30 min, K3 100 μM, estradiol 10 nM
Method: Human breast cancer cell lines MCF7 and T47D were obtained from the American Type Culture Collection (ATCC). MCF7 cells were maintained in Dulbecco's Modification of Eagle's Medium (Cellgro) supplemented with 10% fetal bovine serum (Cellgro), 1% penicillin/streptomycin (Cellgro) and 10 μg/ml insulin (Sigma). T47D cells were maintained in RPMI (Cellgro) supplemented with 10% fetal bovine serum, 1% penicillin/streptomycin and 10 μg/ml insulin. Treatment conditions for both cell lines involved plating ˜1×10^6 cells in normal media onto 10 cm dishes, attachment and growth for 24 hours followed by a change to estrogen-free culture conditions (phenol red-free DME H-16 supplemented with 10% charcoal stripped serum, 1% penicillin/streptomycin and 10 μg/ml insulin) for an additional 24 hours. Cells were then treated as indicated for 30 minutes before extract preparation. Indicated conditions involved 30 minute pretreatments.
For preparation of high-salt nuclear extracts (nucleoplasm), isolated nuclei were resuspended for 20 minutes in ice cold extraction buffer (0.4 M NaCl, 25 mM Tris pH 7.5, 1 mM DTT, 20% glycerol, 10 mM NaFl and min-complete protease inhibitors (Roche)) followed by a 4° C. centrifugation at 16,000×g for 15 minutes.

[1] = tested on: p50 and p65 NFκB subunits; assay: Immunoblot of nuclear p50 and p65 NFκB subunits in MCF-7 cells; type: cell-based, human; details: MCF-7, menadione 100 μM × 30 min
Method: (§1) PS-341 was kindly provided by Millennium Pharmaceuticals Inc. (Cambridge, Mass.). […] For assessment of combined treatment effects on cell viability, 2×10^4 cells (MCF-7, MCF-7/HER2, BT474) grown in 24-well plates were first treated with tamoxifen (dissolved in ethanol) and/or parthenolide (dissolved in DMSO); for the combination treatment pathenolide was added 4 h before addition of tamoxifen. Cell viability was measured 18 h after tamoxifen treatment using the sulforhodamine B (SRB) assay (Skehan, et al. 1990). Briefly, cells fixed with trichloroacetic acid were stained for 30 min with 0.4% SRB dissolved in 1% acetic acid. Unbound dye was removed by four washes with 1% acetic acid, and protein-bound dye was extracted with 10 mM unbuffered Tris base [tris(hydroxymethyl)aminomethane] for determination of optical density at 564 nm.
Fractionation of control and treated cells into cytoplasmic and nuclear extracts was performed as previously described (Dignam et al., 1983), with minor modification. Cells harvested on ice were washed twice with cold PBS, scraped and resuspended in 1.0 ml hypotonic buffer (20 mM HEPES, pH 7.0; 10 mM KCl; 1 mM MgCl2; 0.1% Triton X-100; 20% glycerol; 0.5 mM DTT) containing a cocktail of protease inhibitors (Mini CompleteTM protease inhibitors, Roche Diagnostics, Mannheim, Germany). The harvested cells were Dounce homogenized on ice, the mixture centrifuged at 3,000 rpm at 4° C. (5 min), and the cytoplasmic fraction separated from the nuclear pellet which was resuspended in elution buffer (20 mM HEPES, pH 7.0; 10 mM KCl; 1 mM MgCl2; 0.42 M NaCl; 0.1% Triton X-100; 20% glycerol; 0.5 mM DTT), supplemented with protease inhibitors. After 20 min at 4° C. the buffered mixture was centrifuged at 14,000 rpm at 4° C. (10 min) to obtain solubilized nuclear extracts which were then stored in aliquots at −80° C. after protein determination (Bradford; BioRad, Hercules, Calif.) and for subsequent NFkB DNA-binding assays.
Antibodies against p50 NFκB, p65 NFκB, IκB, and β-actin proteins were commercially obtained (Santa Cruz Biotechnology, Santa Cruz, Calif.; and Abcam Inc., Cambridge, Mass.). […]; 4% SDS; 20% glycerol; and 10% 2-mercaptoethanol) and resolved by electrophoresis in 4-12% Bis-Tris SDS gradient gels in morpholinepropane sulfonic acid (MOPS) buffer. Separated proteins were transferred onto polyvinylidene difluoride membranes (Millipore Co., Billerica, Mass.), blocked with 5% non-fat milk in PBS containing 0.1% Tween-20, and membranes immunoblotted with the indicated antibodies in blocking solution. […]

IκBα = assay: Immunoblot of cytoplasmic IκBα in MCF-7 cells; type: cell-based, human; details: MCF-7, menadione 100 μM × 30 min
Method: as §1
Fractionation of control and treated cells into cytoplasmic and nuclear extracts was performed as previously described (Dignam et al., 1983), with minor modification. Cells harvested on ice were washed twice with cold PBS, scraped and resuspended in 1.0 ml hypotonic buffer (20 mM HEPES, pH 7.0; 10 mM KCl; 1 mM MgCl2; 0.1% Triton X-100; 20% glycerol; 0.5 mM DTT) containing a cocktail of protease inhibitors (Mini CompleteTM protease inhibitors, Roche Diagnostics, Mannheim, Germany). […]

CC1=CC(=O)c2ccccc2C1=O [menadione, 2-methyl-1,4-naphthoquinone]
increase in nuclear translocation of NF-κB p65 vs control treated cells (NF-κB p65): > 3 fold
nuclear translocation of ERα (ERα): nuclear translocation of 67 kDa (wild-type) ER
nuclear translocation of ERα (ERα; listed as K3): majority of this cytoplasmic ERα has translocated to the nucleus
nuclear NFκB subunits p50 and p65 after menadione treatment [1]: increases in the nuclear NFκB subunits, p50 and p65
cytoplasmic levels of IκBα after menadione treatment (IκBα): reduced
